For the test, the target named is T1, BRAF V600E (Homo sapiens, UniProt P15056+Q96SW2, V600E).
T1 construct: knock-in of the HiBiT tag to the endogenous BRAF V600E locus; host or cells: A375.10 (A375 clonal line, CRISPR HiBiT knock-in at the endogenous BRAF V600E locus)
The test can be described thus: BRAF V600E HiBiT Degradation Assay. Format: cell-based. Put shortly: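 Endogenous HiBiT knock-in on BRAF V600E in A375 cells (clone A375.10); 11-point half-log series, top 10 μM, 2, 6 or 24 h at 37° C. Lytic HiBiT luminescence, background-subtracted, normalized to DMSO; 4-parameter fit gives DC50, Emax (residual protein) and IP (inflection point).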

[1] abbreviates: A375.10 cells, BRAF V600E, 2 hours, inflection point, read-out: HiBiT-Degradation A375.10 BRAF 2 hours IP.
[2] abbreviates: A375.10 cells, BRAF V600E, 2 hours, read-out: HiBiT-Degradation A375.10 BRAF 2 hours DC50.
[3] abbreviates: A375.10 cells, BRAF V600E, 2 hours, residual protein remaining, read-out: HiBiT-Degradation A375.10 BRAF 2 hours Emax.
[4] abbreviates: A375.10 cells, BRAF V600E, 6 hours, inflection point, read-out: HiBiT-Degradation A375.10 BRAF 6 hours IP.
[5] abbreviates: A375.10 cells, BRAF V600E, 6 hours, read-out: HiBiT-Degradation A375.10 BRAF 6 hours DC50.
The mark [6] stands for this setting: A375.10 cells, BRAF V600E, 6 hours, residual protein remaining, read-out: HiBiT-Degradation A375.10 BRAF 6 hours Emax.
[7] abbreviates: A375.10 cells, HiBiT, BRAF V600E, 24 hours, read-out: HiBiT-Degradation A375.10 BRAF 24 hours DC50.
[8] abbreviates: A375.10 cells, HiBiT, BRAF V600E, 24 hours, read-out: HiBiT-Degradation A375.10 BRAF 24 hours Emax.
The mark [9] stands for this setting: A375.10 cells, HiBiT, BRAF V600E, 24 hours, read-out: HiBiT-Degradation A375.10 BRAF 24 hours IP.
[10] abbreviates: read-out: HiBiT-Degradation A375.10 BRAF 2 hours Emax, A375.10 cells, BRAF V600E, 2 hours, residual protein remaining.
Setting [11] is: read-out: HiBiT-Degradation A375.10 BRAF 2 hours DC50, A375.10 cells, BRAF V600E, 2 hours.
Setting [12] is: read-out: HiBiT-Degradation A375.10 BRAF 2 hours IP, A375.10 cells, BRAF V600E, 2 hours, inflection point.
[13] abbreviates: read-out: HiBiT-Degradation A375.10 BRAF 6 hours DC50, A375.10 cells, BRAF V600E, 6 hours.
Where [14] appears, read: read-out: HiBiT-Degradation A375.10 BRAF 6 hours IP, A375.10 cells, BRAF V600E, 6 hours, inflection point.
[15] abbreviates: read-out: HiBiT-Degradation A375.10 BRAF 24 hours DC50, A375.10 cells, HiBiT, BRAF V600E, 24 hours.
Where [16] appears, read: read-out: HiBiT-Degradation A375.10 BRAF 24 hours IP, A375.10 cells, HiBiT, BRAF V600E, 24 hours.

Molecules are shown by their SMILES. Like-named read-outs stand apart in the source and are kept apart here. Some results are limits rather than exact numbers.

The Emax is the greatest response seen or fitted, relative to the assay's reference.

T1 sequence (P15056 whole entry V600E): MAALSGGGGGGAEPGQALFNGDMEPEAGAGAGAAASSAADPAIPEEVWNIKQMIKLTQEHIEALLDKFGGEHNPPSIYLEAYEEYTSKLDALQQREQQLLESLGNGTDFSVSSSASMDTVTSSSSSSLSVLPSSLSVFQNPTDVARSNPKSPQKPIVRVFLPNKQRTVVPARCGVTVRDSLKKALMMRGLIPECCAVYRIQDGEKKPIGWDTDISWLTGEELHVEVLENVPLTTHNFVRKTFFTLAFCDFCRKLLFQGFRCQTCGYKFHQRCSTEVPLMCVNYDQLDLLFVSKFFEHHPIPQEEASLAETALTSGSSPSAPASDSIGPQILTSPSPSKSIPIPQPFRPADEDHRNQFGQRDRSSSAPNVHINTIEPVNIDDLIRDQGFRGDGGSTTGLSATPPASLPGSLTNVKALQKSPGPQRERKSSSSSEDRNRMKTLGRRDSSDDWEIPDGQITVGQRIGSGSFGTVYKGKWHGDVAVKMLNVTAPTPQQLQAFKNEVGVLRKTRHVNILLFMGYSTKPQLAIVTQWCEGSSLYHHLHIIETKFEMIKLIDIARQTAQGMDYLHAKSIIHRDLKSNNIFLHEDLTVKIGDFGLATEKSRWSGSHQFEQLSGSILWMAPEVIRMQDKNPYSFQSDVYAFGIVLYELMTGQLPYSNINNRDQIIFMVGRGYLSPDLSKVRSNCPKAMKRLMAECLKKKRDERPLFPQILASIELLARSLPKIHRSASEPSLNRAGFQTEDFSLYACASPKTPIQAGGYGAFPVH
T1 sequence (Q96SW2 whole entry): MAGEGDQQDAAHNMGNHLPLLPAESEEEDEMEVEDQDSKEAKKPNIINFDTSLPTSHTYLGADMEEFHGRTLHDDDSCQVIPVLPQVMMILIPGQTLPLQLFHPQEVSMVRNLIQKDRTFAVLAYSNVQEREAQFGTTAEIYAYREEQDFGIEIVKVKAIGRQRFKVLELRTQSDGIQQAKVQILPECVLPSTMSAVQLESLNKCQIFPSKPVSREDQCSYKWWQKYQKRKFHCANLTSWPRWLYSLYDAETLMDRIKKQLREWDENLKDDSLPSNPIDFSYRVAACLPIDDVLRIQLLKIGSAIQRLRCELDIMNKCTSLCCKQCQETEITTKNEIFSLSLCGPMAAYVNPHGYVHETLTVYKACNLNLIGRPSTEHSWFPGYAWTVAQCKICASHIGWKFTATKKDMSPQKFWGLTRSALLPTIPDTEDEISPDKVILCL
T1 sequence (Q16531 whole entry partner): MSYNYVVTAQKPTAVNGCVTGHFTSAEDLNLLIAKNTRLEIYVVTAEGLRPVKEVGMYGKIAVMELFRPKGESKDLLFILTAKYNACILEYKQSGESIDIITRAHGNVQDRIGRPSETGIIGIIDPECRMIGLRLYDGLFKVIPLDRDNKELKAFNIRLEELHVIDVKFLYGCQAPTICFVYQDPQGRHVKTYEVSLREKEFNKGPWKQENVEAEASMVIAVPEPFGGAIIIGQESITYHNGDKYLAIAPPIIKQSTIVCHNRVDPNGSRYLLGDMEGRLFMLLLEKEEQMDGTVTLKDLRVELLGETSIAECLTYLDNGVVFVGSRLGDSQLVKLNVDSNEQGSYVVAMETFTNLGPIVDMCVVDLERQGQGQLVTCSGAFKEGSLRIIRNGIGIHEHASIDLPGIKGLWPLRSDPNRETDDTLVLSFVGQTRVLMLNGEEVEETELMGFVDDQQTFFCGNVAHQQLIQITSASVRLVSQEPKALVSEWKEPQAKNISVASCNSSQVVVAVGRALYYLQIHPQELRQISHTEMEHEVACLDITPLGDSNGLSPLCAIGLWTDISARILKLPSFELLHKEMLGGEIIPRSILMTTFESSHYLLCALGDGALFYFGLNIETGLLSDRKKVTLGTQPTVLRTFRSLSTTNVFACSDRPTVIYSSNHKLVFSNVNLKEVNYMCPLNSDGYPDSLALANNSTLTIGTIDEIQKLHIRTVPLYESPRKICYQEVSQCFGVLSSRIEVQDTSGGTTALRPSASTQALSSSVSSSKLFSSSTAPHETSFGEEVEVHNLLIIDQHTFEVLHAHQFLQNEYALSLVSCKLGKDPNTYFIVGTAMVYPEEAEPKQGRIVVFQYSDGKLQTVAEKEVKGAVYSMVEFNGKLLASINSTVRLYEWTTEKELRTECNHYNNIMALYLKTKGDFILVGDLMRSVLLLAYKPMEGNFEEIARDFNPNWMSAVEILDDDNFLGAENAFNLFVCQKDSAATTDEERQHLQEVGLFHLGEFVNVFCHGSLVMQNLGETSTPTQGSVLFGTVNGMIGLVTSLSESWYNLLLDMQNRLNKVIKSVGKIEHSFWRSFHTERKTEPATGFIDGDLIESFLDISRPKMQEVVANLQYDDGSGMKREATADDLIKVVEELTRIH

`CCN(C)S(=O)(=O)Nc1ccc(F)c(Oc2ccc3ncn([C@H]4COC5(CCC(N6CC7(CN(c8cc9c(cc8F)c(N8CCC(=O)NC8=O)nn9C)C7)C6)CC5)C4)c(=O)c3c2)c1C#N` (stereo partly drawn) [Compound 27, 6-[2-cyano-3-[[ethyl(methyl)sulfamoyl]amino]-6-fluoro-phenoxy]-3-[(3R)-8-[6-[3-(2,4-dioxohexahydropyrimidin-1-yl)-5-fluoro-1-methyl-indazol-6-yl]-2,6-diazaspiro[3.3]heptan-2-yl]-1-oxaspiro[4.5]decan-3-yl]-4-oxo-quinazoline]: the DC50 was less than 1000 nM under setting [1]; less than 1000 nM under setting [2]; less than 1000 nM under setting [4]; less than 1000 nM under setting [5]; less than 1000 nM under setting [7]; less than 1000 nM under setting [9]. The Emax runs as follows: under setting [3], less than 50%; under setting [6], less than 50%; under setting [8], less than 50%.
On to `CCN(C)S(=O)(=O)Nc1ccc(F)c(Oc2ccc3ncn([C@H]4COC5(CCC(N6CC7(CN(c8ccc(NC9CCC(=O)NC9=O)cc8F)C7)C6)CC5)C4)c(=O)c3c2)c1C#N` (stereo partly drawn) [Compound 30, 6-[2-cyano-3-[[ethyl(methyl)sulfamoyl]amino]-6-fluoro-phenoxy]-3-[(3R)-8-[6-[4-[(2,6-dioxo-3-piperidyl)amino]-2-fluoro-phenyl]-2,6-diazaspiro[3.3]heptan-2-yl]-1-oxaspiro[4.5]decan-3-yl]-4-oxo-quinazoline], for which the DC50 under setting [1] is less than 1000 nM; the DC50 under setting [2] is less than 1000 nM; the DC50 under setting [4] was less than 1000 nM; the DC50 under setting [5] was less than 1000 nM; the DC50 under setting [7] is less than 1000 nM; the DC50 under setting [9] was less than 1000 nM. For the same compound, the Emax reads like this: under setting [6], less than 50%; under setting [8], less than 50%; under setting [10], less than 50%.
For `CCN(C)S(=O)(=O)Nc1ccc(F)c(Oc2ccc3ncn([C@H]4COC5(CCN(C6CC7(C6)CN(c6ccc(NC8CCC(=O)NC8=O)cc6F)C7)CC5)C4)c(=O)c3c2)c1C#N` (stereo partly drawn) [Compound 35, (3R)-3-[6-[2-cyano-3-[[ethyl(methyl)sulfamoyl]amino]-6-fluoro-phenoxy]-4-oxo-quinazolin-3-yl]-8-[2-[4-[(2,6-dioxo-3-piperidyl)amino]-2-fluoro-phenyl]-2-azaspiro[3.3]heptan-6-yl]-1-oxa-8-azaspiro[4.5]decane], the DC50 runs as follows: under setting [1], less than 1000 nM; under setting [2], less than 1000 nM; under setting [4], less than 1000 nM; under setting [5], less than 1000 nM; under setting [7], less than 1000 nM; under setting [9], less than 1000 nM. In addition, the maximal effect (Emax) reads like this: under setting [3], less than 50%; under setting [6], less than 50%; under setting [8], less than 50%.
As for `CCN(C)S(=O)(=O)Nc1ccc(F)c(Oc2ccc3ncn([C@H]4COC5(CCC(N6CCN(c7ccc(NC8CCC(=O)NC8=O)cc7F)CC6)CC5)C4)c(=O)c3c2)c1C#N` (stereo partly drawn) [Compound 40, 6-[2-cyano-3-[[ethyl(methyl)sulfamoyl]amino]-6-fluoro-phenoxy]-3-[(3R)-8-[4-[4-[(2,6-dioxo-3-piperidyl)amino]-2-fluoro-phenyl]piperazin-1-yl]-1-oxaspiro[4.5]decan-3-yl]-4-oxo-quinazoline], the maximal response (Emax) was 50 to 90% under setting [3], less than 50% under setting [6] and less than 50% under setting [8]. The DC50 under setting [11] is 1000 to 10000 nM; the DC50 under setting [12] was less than 1000 nM; the DC50 under setting [13] is less than 1000 nM; the DC50 under setting [14] is less than 1000 nM; the DC50 under setting [15] was less than 1000 nM; the DC50 under setting [16] is less than 1000 nM.
In the case of `Cn1nc(N2CCC(=O)NC2=O)c2cc(F)c(N3CC4(CC(N5CCC6(CC5)C[C@@H](n5cnc7ccc(Oc8c(F)ccc(NS(=O)(=O)N9CC[C@@H](F)C9)c8C#N)cc7c5=O)CO6)C4)C3)cc21` [Compound 133, (3R)-N-[2-cyano-3-[3-[(3R)-8-[2-[3-(2,4-dioxohexahydropyrimidin-1-yl)-5-fluoro-1-methyl-indazol-6-yl]-2-azaspiro[3.3]heptan-6-yl]-1-oxa-8-azaspiro[4.5]decan-3-yl]-4-oxo-quinazolin-6-yl]oxy-4-fluoro-phenyl]-3-fluoro-pyrrolidine-1-sulfonamide], the DC50 under setting [1] is less than 1000 nM; the DC50 under setting [2] is more than 10000 nM; the DC50 under setting [4] was less than 1000 nM; the DC50 under setting [5] was less than 1000 nM; the DC50 under setting [7] was less than 1000 nM; the DC50 under setting [9] was less than 1000 nM. Further, the maximal effect (Emax) reads like this: under setting [6], less than 50%; under setting [8], less than 50%; under setting [10], 50 to 90%.
For the compound `CC(C)S(=O)(=O)Nc1ccc(F)c(Oc2ccc3ncn([C@H]4COC5(CCN(C6CC7(C6)CN(c6cc8c(cc6F)c(N6CCC(=O)NC6=O)nn8C)C7)CC5)C4)c(=O)c3c2)c1C#N` [Compound 134, N-[2-cyano-3-[3-[(3R)-8-[2-[3-(2,4-dioxohexahydropyrimidin-1-yl)-5-fluoro-1-methyl-indazol-6-yl]-2-azaspiro[3.3]heptan-6-yl]-1-oxa-8-azaspiro[4.5]decan-3-yl]-4-oxo-quinazolin-6-yl]oxy-4-fluoro-phenyl]propane-2-sulfonamide], the DC50 is, setting by setting: under setting [1], less than 1000 nM; under setting [2], less than 1000 nM; under setting [4], less than 1000 nM; under setting [5], less than 1000 nM; under setting [7], less than 1000 nM; under setting [9], less than 1000 nM. Also, the Emax was 50 to 90% under setting [3], less than 50% under setting [6] and less than 50% under setting [8].
Consider `CCN(C)S(=O)(=O)Nc1ccc(F)c(Oc2ccc3ncn(C4CC5(CCN(C6CC7(C6)CN(c6cc8c(cc6F)c(N6CCC(=O)NC6=O)nn8C)C7)CC5)C4)c(=O)c3c2)c1C#N` (stereo not drawn) [Compound 141, 6-[2-cyano-3-[[ethyl(methyl)sulfamoyl]amino]-6-fluoro-phenoxy]-3-[7-[2-[3-(2,4-dioxohexahydropyrimidin-1-yl)-5-fluoro-1-methyl-indazol-6-yl]-2-azaspiro[3.3]heptan-6-yl]-7-azaspiro[3.5]nonan-2-yl]-4-oxo-quinazoline], for which the DC50 is less than 1000 nM under setting [1]; less than 1000 nM under setting [2]; less than 1000 nM under setting [4]; less than 1000 nM under setting [5]; less than 1000 nM under setting [7]; less than 1000 nM under setting [9]. The Emax reads like this: under setting [6], less than 50%; under setting [8], less than 50%; under setting [10], less than 50%.
Turning to `CO[C@@H]1CCN(S(=O)(=O)Nc2ccc(F)c(Oc3ccc4ncn([C@H]5COC6(CCN(C7CC8(C7)CN(c7cc9c(cc7F)c(N7CCC(=O)NC7=O)nn9C)C8)CC6)C5)c(=O)c4c3)c2C#N)C1` [Compound 144, (3R)-N-[2-cyano-3-[3-[(3R)-8-[2-[3-(2,4-dioxohexahydropyrimidin-1-yl)-5-fluoro-1-methyl-indazol-6-yl]-2-azaspiro[3.3]heptan-6-yl]-1-oxa-8-azaspiro[4.5]decan-3-yl]-4-oxo-quinazolin-6-yl]oxy-4-fluoro-phenyl]-3-methoxy-pyrrolidine-1-sulfonamide], the Emax is less than 50% under setting [6], less than 50% under setting [8] and 50 to 90% under setting [10]. Further, the DC50 by setting is: under setting [11], 1000 to 10000 nM; under setting [12], less than 1000 nM; under setting [13], less than 1000 nM; under setting [14], less than 1000 nM; under setting [15], less than 1000 nM; under setting [16], less than 1000 nM.
Regarding `CN(CCO)S(=O)(=O)Nc1ccc(F)c(Oc2ccc3ncn(C4CC5(CCN(C6CC7(C6)CN(c6cc8c(cc6F)c(N6CCC(=O)NC6=O)nn8C)C7)CC5)C4)c(=O)c3c2)c1C#N` (stereo not drawn) [Compound 151, 6-[2-cyano-6-fluoro-3-[[2-hydroxyethyl(methyl)sulfamoyl]amino]phenoxy]-3-[7-[2-[3-(2,4-dioxohexahydropyrimidin-1-yl)-5-fluoro-1-methyl-indazol-6-yl]-2-azaspiro[3.3]heptan-6-yl]-7-azaspiro[3.5]nonan-2-yl]-4-oxo-quinazoline], the Emax runs as follows: under setting [3], 50 to 90%; under setting [6], less than 50%; under setting [8], less than 50%. In addition, the DC50 reads like this: under setting [11], 1000 to 10000 nM; under setting [12], less than 1000 nM; under setting [13], less than 1000 nM; under setting [14], less than 1000 nM; under setting [15], less than 1000 nM; under setting [16], less than 1000 nM.
